In US11696913B2, “Prolonged ectoparasite-controlling agent for animal” (MITSUI CHEMICALS AGRO, INC., priority 2017, dated 2023):

Experiments:
[1] = test system: Ctenocephalides felis; assay: In vitro contact test with fleas; conditions: read-out: insecticidal activity; for pest or weed control at 0.04 µg/cm2, 0.04 µg/cm2: dose 0.04 μg/cm^2, dead or moribund fleas after 48 h; for pest or weed control at 0.2 µg/cm2, 0.2 µg/cm2: dose 0.2 μg/cm^2, dead or moribund fleas after 48 h; for pest or weed control at 1 µg/cm2, 1 µg/cm2: dose 1 μg/cm^2, dead or moribund fleas after 48 h
How it was run: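 Activity is the percentage of fleas dead or moribund at 48 h, judged by immobility or uncoordinated movement after tapping. Tubes were coated by evaporating acetone solutions (900 ppm gives 5 μg/cm^2), then held 5-10 adult fleas of both sexes at room temperature and ambient humidity.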

[2] = test system: Amblyomma americanum; assay: In vitro contact test with hard ticks (Amblyomma americanum nymphs); conditions: read-out: acaricidal activity; for pest or weed control at 0.2 µg/cm2, 0.2 µg/cm2: dose 0.2 μg/cm^2, 48 h; for pest or weed control at 1 µg/cm2, 1 µg/cm2: dose 1 μg/cm^2, 48 h; for pest or weed control at 0.04 µg/cm2, 0.04 µg/cm2: dose 0.04 μg/cm^2, 48 h
How it was run: (§1)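 Acaricidal activity = % ticks dead or moribund after 48 h contact with acetone-deposited compound on vial walls (e.g., 900 ppm solution → 5 μg/cm^2). Ambient conditions for R. sanguineus, 21° C./85% rel. hum. for other species; heat challenge at 45-50° C. separated climbers from moribund ticks.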

[3] = test system: Dermacentor variabilis; assay: In vitro contact test with adult hard ticks (Dermacentor variabilis); conditions: read-out: acaricidal activity; for pest or weed control at 0.04 µg/cm2, 0.04 µg/cm2: dose 0.04 μg/cm^2, 48 h; for pest or weed control at 0.2 µg/cm2, 0.2 µg/cm2: dose 0.2 μg/cm^2, 48 h; for pest or weed control at 1 µg/cm2, 1 µg/cm2: dose 1 μg/cm^2, 48 h
How it was run: as §1

[4] = test system: Ixodes ricinus; assay: In vitro contact test with adult hard ticks (Ixodes ricinus); conditions: read-out: acaricidal activity; for pest or weed control at 5 µg/cm2, 5 µg/cm2: dose 5 μg/cm^2, 48 h; for pest or weed control at 1 µg/cm2, 1 µg/cm2: dose 1 μg/cm^2, 48 h; for pest or weed control at 0.2 µg/cm2, 0.2 µg/cm2: dose 0.2 μg/cm^2, 48 h
How it was run: as §1

[5] = test system: Rhipicephalus sanguineus; assay: In vitro contact test with adult hard ticks (Rhipicephalus sanguineus); conditions: read-out: acaricidal activity; for pest or weed control at 0.2 µg/cm2, 0.2 µg/cm2: dose 0.2 μg/cm^2, 48 h; for pest or weed control at 1 µg/cm2, 1 µg/cm2: dose 1 μg/cm^2, 48 h; for pest or weed control at 0.04 µg/cm2, 0.04 µg/cm2: dose 0.04 μg/cm^2, 48 h
How it was run: as §1

[6] = test system: Rhipicephalus (Boophilus) microplus; assay: In vitro injection test with Rhipicephalus (Boophilus) microplus (BOOPMI Inj); conditions: 168 h, laid fertile eggs after 7 days, read-out: acaricidal activity; for pest or weed control at 32 ng: dose 0.032 μg/animal injected; for pest or weed control at 0.00016 mg: dose 0.16 μg/animal injected; for pest or weed control at 0.0008 mg: dose 0.8 μg/animal injected
How it was run: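 Five engorged adult females each get a 1 μl abdominal injection of compound dissolved and diluted in DMSO. Kept 7 days at 28° C./85% rel. hum.; percent activity rates egg laying and egg fertility (0% all fertile, 100% none laid or infertile).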

[7] = test system: Ctenocephalides felis; assay: Ctenocephalides felis in-vitro feeding test with fleas (CTECFE oral); conditions: 48 hours, read-out: insecticidal feeding activity; for pest or weed control at 0.16 ppm: dose 0.16 ppm in citrated cattle blood; for pest or weed control at 0.8 ppm: dose 0.8 ppm in citrated cattle blood; for pest or weed control at 4 ppm: dose 4 ppm in citrated cattle blood; for pest or weed control at 0.032 ppm: dose 0.032 ppm in citrated cattle blood
How it was run: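 Scored as percent fleas killed (0–100%) 48 hours after feeding began. Compound, dissolved in DMSO and diluted into citrated cattle blood, was offered via a parafilm membrane to roughly 20 adult male and female C. felis at about 37° C.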

[8] = test system: Spodoptera litura; assay: Insecticidal testing against common cutworm; format: in vivo; conditions: foliar, 144 h, concentration 100 ppm, cabbage leaf dip, second-stage larvae, after 6 days, read-out: pesticidal rate
Text: Insecticidal Testing Against Common Cutworm (Spodoptera litura)

[9] = test system: Plutella xylostella; assay: Insecticidal testing against diamondback moth; format: in vivo; conditions: foliar, 144 h, concentration 100 ppm, cabbage leaf dip, third-stage larvae, after 6 days, read-out: pesticidal rate
Text: Insecticidal Testing Against Diamondback Moth (Plutella xylostella)

[10] = test system: Laodelphax striatellus; assay: Insecticidal testing against small brown planthopper; format: in vivo; conditions: 144 h, concentration 100 ppm, sprayed rice seedlings, after 6 days, read-out: pesticidal rate
How it was run: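 Acetone solution of compound at a set concentration sprayed onto rice seedlings, air-dried, then exposed to 10 planthoppers (one group). Held at 25° C; survival rate recorded after 6 days.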

SMILES | pest or weed control at 0.04 µg/cm2, 0.04 µg/cm2 [1] | pest or weed control at 0.2 µg/cm2, 0.2 µg/cm2 [1] | pest or weed control at 1 µg/cm2, 1 µg/cm2 [1] | pest or weed control at 0.2 µg/cm2, 0.2 µg/cm2 [2] | pest or weed control at 1 µg/cm2, 1 µg/cm2 [2] | pest or weed control at 0.2 µg/cm2, 0.2 µg/cm2 [3] | pest or weed control at 1 µg/cm2, 1 µg/cm2 [3] | pest or weed control at 5 µg/cm2, 5 µg/cm2 [4] | pest or weed control at 0.2 µg/cm2, 0.2 µg/cm2 [5] | pest or weed control at 1 µg/cm2, 1 µg/cm2 [5] | pest or weed control at 32 ng [6] | pest or weed control at 0.00016 mg [6] | pest or weed control at 0.0008 mg [6] | pest or weed control at 0.16 ppm [7] | pest or weed control at 0.8 ppm [7] | pest or weed control at 4 ppm [7] | pest or weed control at 100 ppm [8] | pest or weed control at 100 ppm [9] | pest or weed control at 100 ppm [10] | pest or weed control at 1 µg/cm2, 1 µg/cm2 [4] | other results
CN(C(=O)c1ccc(F)nc1)c1cccc(C(=O)Nc2c(I)cc(C(F)(C(F)(F)F)C(F)(F)C(F)(F)F)cc2C(F)(F)F)c1F (stereo not drawn) [Compound 81] | 95% | 95% | 95% | 90% | 90% | 90% | 90% | 90% | 90% | 90% | 100% | 100% | 100% | 95% | 95% | 95% | ≥ 70% | ≥ 70% | ≥ 70% |  | pest or weed control at 0.04 µg/cm2, 0.04 µg/cm2 [3]: 90%; pest or weed control at 6.4 ng ([6]; dose 0.0064 μg/animal injected): 100%
O=C(Nc1cccc(C(=O)Nc2c(I)cc(C(F)(C(F)(F)F)C(F)(F)C(F)(F)F)cc2C(F)(F)F)c1F)c1ccc(C(F)(F)F)nc1 (stereo not drawn) [Compound 102] |  | 95% | 95% | 90% | 90% |  | 90% | 90% | 90% | 90% | 100% | 100% | 100% | 95% | 95% | 95% | ≥ 70% | ≥ 70% | ≥ 70% |  | pest or weed control at 0.032 ppm [7]: 95%
N#Cc1ccc(C(=O)Nc2cccc(C(=O)Nc3c(I)cc(C(F)(C(F)(F)F)C(F)(F)F)cc3C(F)(F)F)c2F)cn1 [Compound 79] |  | 95% | 95% | 90% | 90% |  | 90% | 90% | 90% | 90% | 100% | 100% | 100% | 95% | 95% | 95% | ≥ 70% | ≥ 70% | ≥ 70% | 90% | 
CN(C(=O)c1ccc(F)cc1)c1cccc(C(=O)Nc2c(Br)cc(C(F)(C(F)(F)F)C(F)(F)C(F)(F)F)cc2OC(F)F)c1F (stereo not drawn) [Compound 105] | 95% | 95% | 95% |  | 90% | 90% | 90% | 90% |  | 90% | 100% | 100% | 100% | 95% | 95% | 95% | ≥ 70% | ≥ 70% | ≥ 70% | 90% | pest or weed control at 0.04 µg/cm2, 0.04 µg/cm2 [2]: 90%; pest or weed control at 0.032 ppm [7]: 95%
O=C(Nc1cccc(C(=O)Nc2c(Br)cc(C(F)(C(F)(F)F)C(F)(F)F)cc2OC(F)F)c1F)c1ccc(F)cc1 [Compound 91] | 95% | 95% | 95% | 90% | 90% | 90% | 90% | 90% | 90% | 90% | 100% | 100% | 100% | 95% | 95% | 95% | ≥ 70% | ≥ 70% | ≥ 70% | 90% | pest or weed control at 0.04 µg/cm2, 0.04 µg/cm2 [2]: 90%; pest or weed control at 0.04 µg/cm2, 0.04 µg/cm2 [3]: 90%; pest or weed control at 0.2 µg/cm2, 0.2 µg/cm2 [4]: 90%; pest or weed control at 0.04 µg/cm2, 0.04 µg/cm2 [5]: 90%; pest or weed control at 0.032 ppm [7]: 95%
O=C(Nc1cccc(C(=O)Nc2c(Br)cc(C(F)(C(F)(F)F)C(F)(F)F)cc2OC(F)(F)F)c1F)c1ccc(F)c(F)c1 [Compound 101] | 95% | 95% | 95% | 90% | 90% | 90% | 90% | 90% | 90% | 90% |  | 100% | 100% | 95% | 95% | 95% | ≥ 70% | ≥ 70% | ≥ 70% | 90% | pest or weed control at 0.2 µg/cm2, 0.2 µg/cm2 [4]: 90%
O=C(Nc1cccc(C(=O)Nc2c(I)cc(C(F)(C(F)(F)F)C(F)(F)F)cc2C(F)(F)F)c1F)c1ccc(C(F)F)nc1 [Compound 85] | 95% | 95% | 95% | 90% | 90% | 90% | 90% | 90% | 90% | 90% | 100% | 100% | 100% | 95% | 95% | 95% | ≥ 70% | ≥ 70% | ≥ 70% | 90% | pest or weed control at 0.04 µg/cm2, 0.04 µg/cm2 [3]: 90%; pest or weed control at 0.2 µg/cm2, 0.2 µg/cm2 [4]: 90%; pest or weed control at 0.0064 ppm ([7]; dose 0.0064 ppm in citrated cattle blood): 95%; pest or weed control at 0.032 ppm [7]: 95%
O=C(Nc1cccc(C(=O)Nc2c(I)cc(C(F)(C(F)(F)F)C(F)(F)F)cc2C(F)(F)F)c1F)c1ccc(F)c(F)c1 [Compound 86] | 95% | 95% | 95% | 90% | 90% | 90% | 90% | 90% | 90% | 90% | 100% | 100% | 100% | 95% | 95% | 95% | ≥ 70% | ≥ 70% | ≥ 70% | 90% | pest or weed control at 0.04 µg/cm2, 0.04 µg/cm2 [2]: 90%; pest or weed control at 0.04 µg/cm2, 0.04 µg/cm2 [3]: 90%; pest or weed control at 0.2 µg/cm2, 0.2 µg/cm2 [4]: 90%; pest or weed control at 0.04 µg/cm2, 0.04 µg/cm2 [5]: 90%; pest or weed control at 0.032 ppm [7]: 95%
